Results on 9 molecules are retold here after ChEMBL document CHEMBL4385619, “Identification of topoisomerases as molecular targets of cytosporolide C and its analog” (Bioorg Med Chem, 2019).

SMILES strings stand for the structures. The source made the active and inactive calls. The calls are words filed in the database; no cut-off is given here. Where only a bound is given, the exact number is not on record here.

The IC50 is the midpoint of a concentration-inhibition curve.

One experiment addresses T1, DNA topoisomerase 1 (Escherichia coli (strain K12)) (UniProt P06612).
T1 sequence (whole entry): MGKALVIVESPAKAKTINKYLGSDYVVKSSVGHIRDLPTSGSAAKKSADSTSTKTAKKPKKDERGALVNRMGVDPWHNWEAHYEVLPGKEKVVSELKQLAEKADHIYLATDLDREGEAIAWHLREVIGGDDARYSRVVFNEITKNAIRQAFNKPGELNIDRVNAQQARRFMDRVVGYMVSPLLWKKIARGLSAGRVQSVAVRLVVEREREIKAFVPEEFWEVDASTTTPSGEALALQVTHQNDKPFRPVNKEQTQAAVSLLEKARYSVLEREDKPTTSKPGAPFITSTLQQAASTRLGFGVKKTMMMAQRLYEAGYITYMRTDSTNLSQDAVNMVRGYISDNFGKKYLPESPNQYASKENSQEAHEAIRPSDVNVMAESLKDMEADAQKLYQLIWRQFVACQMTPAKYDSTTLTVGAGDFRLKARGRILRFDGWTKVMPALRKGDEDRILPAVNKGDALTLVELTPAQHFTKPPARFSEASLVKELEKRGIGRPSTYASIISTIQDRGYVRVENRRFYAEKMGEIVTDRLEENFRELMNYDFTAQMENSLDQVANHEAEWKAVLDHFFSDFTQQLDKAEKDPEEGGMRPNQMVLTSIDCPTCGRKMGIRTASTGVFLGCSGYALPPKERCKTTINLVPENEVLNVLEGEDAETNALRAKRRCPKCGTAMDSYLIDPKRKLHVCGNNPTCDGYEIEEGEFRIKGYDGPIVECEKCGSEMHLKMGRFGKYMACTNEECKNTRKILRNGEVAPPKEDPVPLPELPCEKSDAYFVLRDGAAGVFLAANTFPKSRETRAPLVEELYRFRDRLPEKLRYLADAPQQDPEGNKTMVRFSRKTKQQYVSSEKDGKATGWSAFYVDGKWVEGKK
In words: Inhibition of Escherichia coli topoisomerase 1 mediated DNA relaxation at 10 uM using plasmid pMT-puro DNA as substrate after 30 mins by ethidium bromide staining-based agarose gel electrophoresis method.
Conditions: not given
For the molecule `C=C1CC[C@@H]2[C@H]3O[C@H](CCCCCCC)Cc4cc(O)c(C(=O)O)c(c43)O[C@@]2(C)CC[C@@H]2[C@@H]1CC2(C)C`, the inhibition result is “Active”.
For the molecule `CCCCCCC[C@@H]1Cc2cc(O)c(C(=O)O)c3c2[C@H](O1)[C@H]1[C@@H](OC)/C=C(/COC(C)=O)[C@H]2CC(C)(C)[C@]2(O)[C@@H](O)C[C@]1(C)O3`, the inhibition result was “Active”.
On the same count and under the same terms, the value for `CCCCCCC[C@@H]1Cc2cc(O)c(C(=O)O)c3c2[C@H](O1)[C@H]1[C@@H](OC)/C=C(/COC(C)=O)[C@H]2CC(C)(C)[C@]2(O)[C@@H](OC(C)=O)C[C@]1(C)O3` was “inactive”; that for `CO[C@@H]1/C=C(\C)C[C@H](OC(C)=O)[C@]2(O)[C@H](CC2(C)C)/C(COC(C)=O)=C\1` was “inactive”; that for `CCCCCCC[C@@H]1Cc2cc(O)c(C(=O)O)c(O)c2[C@H](O)O1` was “inactive”.
In the case of `CO[C@@H]1/C=C(\C)C[C@H](O)[C@]2(O)[C@H](CC2(C)C)/C(CO)=C\1`, the inhibition entry is “inactive”.
Turning to `CCCCCCC[C@@H]1Cc2cc(O)c(C(=O)O)c3c2[C@H](O1)[C@H]1[C@@H](OC)/C=C(/CO)[C@H]2CC(C)(C)[C@]2(O)[C@@H](O)C[C@]1(C)O3`, the inhibition result was “inactive”.

For a further experiment, the system named is HCT-116. In words: Antiproliferative activity against human HCT116 cells assessed as reduction in cell viability measured after 72 hrs by MTT assay. The class given is functional, cell-based. The settings on record: HCT-116, 72 h.
In the case of `C=C1CC[C@@H]2[C@H]3O[C@H](CCCCCCC)Cc4cc(O)c(C(=O)O)c(c43)O[C@@]2(C)CC[C@@H]2[C@@H]1CC2(C)C`, the IC50 stood at 3.91 µM.
Turning to `CCCCCCC[C@@H]1Cc2cc(O)c(C(=O)O)c3c2[C@H](O1)[C@H]1[C@@H](OC)/C=C(/COC(C)=O)[C@H]2CC(C)(C)[C@]2(O)[C@@H](O)C[C@]1(C)O3`, the IC50 was determined as 5.98 µM.
On the same count and under the same terms, the value for `CCCCCCC[C@@H]1Cc2cc(O)c(C(=O)O)c3c2[C@H](O1)[C@H]1[C@@H](OC)/C=C(/COC(C)=O)[C@H]2CC(C)(C)[C@]2(O)[C@@H](OC(C)=O)C[C@]1(C)O3` was > 10 µM; that for `CO[C@@H]1/C=C(\C)C[C@H](OC(C)=O)[C@]2(O)[C@H](CC2(C)C)/C(COC(C)=O)=C\1` was > 10 µM.
Still for that read-out and setting: the value for `CCCCCCC[C@@H]1Cc2cc(O)c(C(=O)O)c(O)c2[C@H](O)O1` was > 10 µM; that for `CO[C@@H]1/C=C(\C)C[C@H](O)[C@]2(O)[C@H](CC2(C)C)/C(CO)=C\1` was > 10 µM.
For the molecule `CCCCCCC[C@@H]1Cc2cc(O)c(C(=O)O)c3c2[C@H](O1)[C@H]1[C@@H](OC)/C=C(/CO)[C@H]2CC(C)(C)[C@]2(O)[C@@H](O)C[C@]1(C)O3`, the IC50 was > 10 µM.

A further experiment addresses T1, DNA topoisomerase 1 (Escherichia coli (strain K12)). In words: Inhibition of Escherichia coli topoisomerase 1 mediated DNA relaxation using plasmid pMT-puro DNA as substrate after 30 mins by ethidium bromide staining-based agarose gel electrophoresis method.
Conditions: not given
Turning to `C=C1CC[C@@H]2[C@H]3O[C@H](CCCCCCC)Cc4cc(O)c(C(=O)O)c(c43)O[C@@]2(C)CC[C@@H]2[C@@H]1CC2(C)C`, the inhibition result was “Dose-dependent effect”.

For a further experiment, the target named is DNA topoisomerase 2-alpha (Homo sapiens) (UniProt P11388). Briefly: Inhibition of human DNA topoisomerase 2 mediated decatenation at 10 uM using kDNA as substrate after 30 mins by ethidium bromide staining-based agarose gel electrophoresis method.
Chain of DNA topoisomerase 2-alpha (Homo sapiens) (P11388 whole entry): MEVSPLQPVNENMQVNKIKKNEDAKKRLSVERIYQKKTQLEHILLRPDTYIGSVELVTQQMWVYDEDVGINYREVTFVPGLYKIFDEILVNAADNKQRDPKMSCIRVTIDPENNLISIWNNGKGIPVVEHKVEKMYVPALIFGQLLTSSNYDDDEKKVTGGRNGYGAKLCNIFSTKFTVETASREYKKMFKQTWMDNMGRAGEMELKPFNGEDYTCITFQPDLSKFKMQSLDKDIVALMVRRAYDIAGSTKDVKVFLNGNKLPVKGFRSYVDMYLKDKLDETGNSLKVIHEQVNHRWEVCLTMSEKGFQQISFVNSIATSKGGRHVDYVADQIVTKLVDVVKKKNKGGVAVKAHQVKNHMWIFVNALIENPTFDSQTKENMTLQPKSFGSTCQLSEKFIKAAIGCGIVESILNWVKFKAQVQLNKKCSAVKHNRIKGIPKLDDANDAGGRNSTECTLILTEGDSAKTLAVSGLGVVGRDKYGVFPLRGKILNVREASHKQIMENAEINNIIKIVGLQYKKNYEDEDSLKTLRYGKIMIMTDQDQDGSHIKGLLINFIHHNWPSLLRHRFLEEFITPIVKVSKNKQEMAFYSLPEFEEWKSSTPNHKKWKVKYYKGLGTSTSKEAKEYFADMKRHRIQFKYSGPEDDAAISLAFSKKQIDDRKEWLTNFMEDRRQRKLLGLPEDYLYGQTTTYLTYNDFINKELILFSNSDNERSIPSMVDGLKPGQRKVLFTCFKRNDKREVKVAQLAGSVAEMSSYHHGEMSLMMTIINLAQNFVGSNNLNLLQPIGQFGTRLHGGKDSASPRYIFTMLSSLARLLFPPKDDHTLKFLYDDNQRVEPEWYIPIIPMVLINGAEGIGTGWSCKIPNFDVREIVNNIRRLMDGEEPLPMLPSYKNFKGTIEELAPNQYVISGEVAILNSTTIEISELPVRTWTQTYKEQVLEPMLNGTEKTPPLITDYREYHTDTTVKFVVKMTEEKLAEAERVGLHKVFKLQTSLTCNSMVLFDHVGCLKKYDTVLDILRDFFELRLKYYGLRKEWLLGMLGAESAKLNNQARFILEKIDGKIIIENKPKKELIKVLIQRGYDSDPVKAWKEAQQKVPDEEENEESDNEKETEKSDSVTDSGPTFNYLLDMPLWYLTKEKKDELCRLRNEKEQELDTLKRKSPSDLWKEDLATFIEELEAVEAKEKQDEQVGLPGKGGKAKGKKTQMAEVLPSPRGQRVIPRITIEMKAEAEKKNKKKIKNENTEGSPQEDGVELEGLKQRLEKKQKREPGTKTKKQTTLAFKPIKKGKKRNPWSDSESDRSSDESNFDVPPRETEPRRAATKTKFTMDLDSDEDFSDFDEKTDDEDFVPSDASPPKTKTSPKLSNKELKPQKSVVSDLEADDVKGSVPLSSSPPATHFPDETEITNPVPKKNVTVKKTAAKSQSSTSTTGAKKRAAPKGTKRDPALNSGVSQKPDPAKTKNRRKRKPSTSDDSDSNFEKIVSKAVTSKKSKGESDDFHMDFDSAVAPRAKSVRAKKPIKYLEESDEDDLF
Conditions: not given
As for `C=C1CC[C@@H]2[C@H]3O[C@H](CCCCCCC)Cc4cc(O)c(C(=O)O)c(c43)O[C@@]2(C)CC[C@@H]2[C@@H]1CC2(C)C`, the inhibition entry is “Active”.
Same read-out and setting: the value for `CCCCCCC[C@@H]1Cc2cc(O)c(C(=O)O)c3c2[C@H](O1)[C@H]1[C@@H](OC)/C=C(/COC(C)=O)[C@H]2CC(C)(C)[C@]2(O)[C@@H](O)C[C@]1(C)O3` was “inactive”; that for `CCCCCCC[C@@H]1Cc2cc(O)c(C(=O)O)c3c2[C@H](O1)[C@H]1[C@@H](OC)/C=C(/COC(C)=O)[C@H]2CC(C)(C)[C@]2(O)[C@@H](OC(C)=O)C[C@]1(C)O3` was “inactive”; that for `CO[C@@H]1/C=C(\C)C[C@H](OC(C)=O)[C@]2(O)[C@H](CC2(C)C)/C(COC(C)=O)=C\1` was “inactive”.
With `CCCCCCC[C@@H]1Cc2cc(O)c(C(=O)O)c(O)c2[C@H](O)O1`, the inhibition result is “Active”.
For `C[C@H]([C@H](C)N1CC(=O)NC(=O)C1)N1CC(=O)NC(=O)C1`, the inhibition result is “Active”.
On to `CO[C@@H]1/C=C(\C)C[C@H](O)[C@]2(O)[C@H](CC2(C)C)/C(CO)=C\1`, for which the inhibition entry is “inactive”.
On the same count and under the same terms, the value for `CCCCCCC[C@@H]1Cc2cc(O)c(C(=O)O)c3c2[C@H](O1)[C@H]1[C@@H](OC)/C=C(/CO)[C@H]2CC(C)(C)[C@]2(O)[C@@H](O)C[C@]1(C)O3` was “inactive”.

Another experiment concerns A549. In words: Antiproliferative activity against human A549 cells assessed as reduction in cell viability measured after 72 hrs by MTT assay. It is filed as functional, cell-based. The note with it: A549, 72 h.
Take `C=C1CC[C@@H]2[C@H]3O[C@H](CCCCCCC)Cc4cc(O)c(C(=O)O)c(c43)O[C@@]2(C)CC[C@@H]2[C@@H]1CC2(C)C`: the IC50 was determined as 5.01 µM.
Still for that read-out and setting: the value for `CCCCCCC[C@@H]1Cc2cc(O)c(C(=O)O)c3c2[C@H](O1)[C@H]1[C@@H](OC)/C=C(/COC(C)=O)[C@H]2CC(C)(C)[C@]2(O)[C@@H](O)C[C@]1(C)O3` was 6.31 µM; that for `CCCCCCC[C@@H]1Cc2cc(O)c(C(=O)O)c3c2[C@H](O1)[C@H]1[C@@H](OC)/C=C(/COC(C)=O)[C@H]2CC(C)(C)[C@]2(O)[C@@H](OC(C)=O)C[C@]1(C)O3` was > 10 µM; that for `CO[C@@H]1/C=C(\C)C[C@H](OC(C)=O)[C@]2(O)[C@H](CC2(C)C)/C(COC(C)=O)=C\1` was > 10 µM.
On the same count and under the same terms, the value for `CCCCCCC[C@@H]1Cc2cc(O)c(C(=O)O)c(O)c2[C@H](O)O1` was > 10 µM.
On the same count and under the same terms, the value for `CO[C@@H]1/C=C(\C)C[C@H](O)[C@]2(O)[C@H](CC2(C)C)/C(CO)=C\1` was > 10 µM; that for `CCCCCCC[C@@H]1Cc2cc(O)c(C(=O)O)c3c2[C@H](O1)[C@H]1[C@@H](OC)/C=C(/CO)[C@H]2CC(C)(C)[C@]2(O)[C@@H](O)C[C@]1(C)O3` was > 10 µM.

A further experiment concerns MCF7. In words: Antiproliferative activity against human MCF7 cells assessed as reduction in cell viability measured after 72 hrs by MTT assay. The class given is functional, cell-based. The settings on record: MCF7, 72 h. Background: Tetrazolium dyes change colour on reduction, which living cells bring about.
As for `C=C1CC[C@@H]2[C@H]3O[C@H](CCCCCCC)Cc4cc(O)c(C(=O)O)c(c43)O[C@@]2(C)CC[C@@H]2[C@@H]1CC2(C)C`, the IC50 worked out at 7.28 µM.
On the same count and under the same terms, the value for `CCCCCCC[C@@H]1Cc2cc(O)c(C(=O)O)c3c2[C@H](O1)[C@H]1[C@@H](OC)/C=C(/COC(C)=O)[C@H]2CC(C)(C)[C@]2(O)[C@@H](O)C[C@]1(C)O3` was 8.88 µM; that for `CCCCCCC[C@@H]1Cc2cc(O)c(C(=O)O)c3c2[C@H](O1)[C@H]1[C@@H](OC)/C=C(/COC(C)=O)[C@H]2CC(C)(C)[C@]2(O)[C@@H](OC(C)=O)C[C@]1(C)O3` was > 10 µM.
Same read-out and setting: the value for `CO[C@@H]1/C=C(\C)C[C@H](OC(C)=O)[C@]2(O)[C@H](CC2(C)C)/C(COC(C)=O)=C\1` was > 10 µM; that for `CCCCCCC[C@@H]1Cc2cc(O)c(C(=O)O)c(O)c2[C@H](O)O1` was > 10 µM.
Still for that read-out and setting: the value for `CO[C@@H]1/C=C(\C)C[C@H](O)[C@]2(O)[C@H](CC2(C)C)/C(CO)=C\1` was > 10 µM; that for `CCCCCCC[C@@H]1Cc2cc(O)c(C(=O)O)c3c2[C@H](O1)[C@H]1[C@@H](OC)/C=C(/CO)[C@H]2CC(C)(C)[C@]2(O)[C@@H](O)C[C@]1(C)O3` was > 10 µM.

A further experiment has as its target T1, DNA topoisomerase 1 (Escherichia coli (strain K12)). In words: Inhibition of Escherichia coli topoisomerase 1 mediated DNA relaxation at 1 uM using plasmid pMT-puro DNA as substrate after 30 mins by ethidium bromide staining-based agarose gel electrophoresis method.
Conditions: not given
Turning to `CC[C@@]1(O)C(=O)OCc2c1cc1n(c2=O)Cc2cc3ccccc3nc2-1`, the inhibition entry is “Active”.
